Laboratory results from patent US20240092758A1, “IMIDAZOLO INDAZOLE COMPOUNDS AS JAK INHIBITORS” (Theravance Biopharma R&D IP, LLC, priority 2021, published 2024).

What was measured:
[1] = target: JAK1 (Homo sapiens (Human), UniProt P23458); assay: Biochemical JAK kinase assay (LanthaScreen), JAK1; details: read-out: JAK1 pKi (converted)
In short: (§1)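 LanthaScreen format: phospho-STAT1 (pTyr701) detected with 2 nM Tb antibody after 10 mM EDTA quench. Kinase step used Km-level ATP and 200 nM STAT1 peptide, 1 h at ambient after 1 h pre-incubation. Inhibition fitted to IC50, reported as pKi.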

[2] = target: JAK2 (Homo sapiens (Human), UniProt O60674); assay: Biochemical JAK kinase assay (LanthaScreen), JAK2; details: read-out: JAK2 pKi (converted)
In short: as §1

[3] = target: JAK3 (Homo sapiens (Human), UniProt P52333); assay: Biochemical JAK kinase assay (LanthaScreen), JAK3; details: read-out: JAK3 pKi (converted)
In short: as §1

[4] = test system: IL-13 induced STAT6 phosphorylation in BEAS-2B human lung epithelial cells; assay: Cellular JAKI potency assay (BEAS-2B); format: cell-based; details: Homo sapiens, BEAS-2B, BEAS-2B cells, read-out: BEAS2B pIC50 (converted)
In short: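 BEAS-2B cells were preincubated with compound (0.1% DMSO) in HBSS/HEPES/BSA for 1 h at 37 °C, then stimulated with IL-13 (80 ng/mL before addition) for 30 min. After lysis, pSTAT6 (Tyr641) was quantified by AlphaLISA SureFire; IC50 from a 4-parameter fit of percent inhibition, reported as pIC50.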

[5] = Pharmacokinetics in plasma and lung in mouse after oral aspiration administration; format: in vivo; details: male CD1 mice; for Lung Tissue AUC(0-24) / AUC(0-t): 0.2 mg/mL, two 25 μL increments; for Lung Tissue:Plasma AUC ratio: lung AUC to plasma AUC; for AUC(0-t): mouse, inhaled or intranasal, 0.01 mg/mouse, plasma, read-out: Plasma AUC(0-24)
In short: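 Male CD1 mice given 0.2 mg/mL compound in 20% propylene glycol/pH 4 citrate buffer, two 25 μL increments by oral aspiration into the trachea under isoflurane. Plasma and lung homogenate sampled 0.167–24 hr and measured by LC-MS/MS. Non-compartmental analysis gave AUC(0-inf); lung-to-plasma ratio from lung (μg*hr/g) over plasma (μg*hr/mL) AUC.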

Sequence of JAK1 (P23458 whole entry): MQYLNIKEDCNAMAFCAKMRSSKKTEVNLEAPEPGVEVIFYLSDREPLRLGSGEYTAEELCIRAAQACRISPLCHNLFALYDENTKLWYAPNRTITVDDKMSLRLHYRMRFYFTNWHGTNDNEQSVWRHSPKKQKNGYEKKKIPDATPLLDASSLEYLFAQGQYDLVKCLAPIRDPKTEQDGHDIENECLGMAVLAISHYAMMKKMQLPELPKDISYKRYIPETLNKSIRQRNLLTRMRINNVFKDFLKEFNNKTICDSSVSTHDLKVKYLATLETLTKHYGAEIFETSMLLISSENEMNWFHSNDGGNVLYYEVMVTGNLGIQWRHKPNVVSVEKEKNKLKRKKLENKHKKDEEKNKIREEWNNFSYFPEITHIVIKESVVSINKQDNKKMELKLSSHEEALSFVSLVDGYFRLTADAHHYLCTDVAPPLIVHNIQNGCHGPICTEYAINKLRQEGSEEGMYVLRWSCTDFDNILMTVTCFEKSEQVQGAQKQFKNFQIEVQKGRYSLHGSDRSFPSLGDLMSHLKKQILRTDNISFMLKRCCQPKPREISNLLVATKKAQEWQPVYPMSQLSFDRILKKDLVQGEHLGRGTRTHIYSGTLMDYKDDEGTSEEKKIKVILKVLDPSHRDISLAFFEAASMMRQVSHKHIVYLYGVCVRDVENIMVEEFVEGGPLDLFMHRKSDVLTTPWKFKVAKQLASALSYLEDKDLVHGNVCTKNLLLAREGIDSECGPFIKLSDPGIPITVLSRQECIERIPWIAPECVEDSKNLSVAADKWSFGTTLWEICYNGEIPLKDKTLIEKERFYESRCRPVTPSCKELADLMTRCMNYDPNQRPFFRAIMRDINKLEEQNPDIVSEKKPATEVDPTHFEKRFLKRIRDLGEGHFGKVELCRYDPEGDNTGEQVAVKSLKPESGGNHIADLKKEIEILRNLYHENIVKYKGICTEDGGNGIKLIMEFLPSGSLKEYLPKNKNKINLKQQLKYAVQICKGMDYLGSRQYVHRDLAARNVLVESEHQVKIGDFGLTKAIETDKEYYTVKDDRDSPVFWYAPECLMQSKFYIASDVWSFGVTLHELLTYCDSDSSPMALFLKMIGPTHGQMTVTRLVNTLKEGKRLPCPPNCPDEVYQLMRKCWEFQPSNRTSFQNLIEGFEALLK
Sequence of JAK3 (P52333 whole entry): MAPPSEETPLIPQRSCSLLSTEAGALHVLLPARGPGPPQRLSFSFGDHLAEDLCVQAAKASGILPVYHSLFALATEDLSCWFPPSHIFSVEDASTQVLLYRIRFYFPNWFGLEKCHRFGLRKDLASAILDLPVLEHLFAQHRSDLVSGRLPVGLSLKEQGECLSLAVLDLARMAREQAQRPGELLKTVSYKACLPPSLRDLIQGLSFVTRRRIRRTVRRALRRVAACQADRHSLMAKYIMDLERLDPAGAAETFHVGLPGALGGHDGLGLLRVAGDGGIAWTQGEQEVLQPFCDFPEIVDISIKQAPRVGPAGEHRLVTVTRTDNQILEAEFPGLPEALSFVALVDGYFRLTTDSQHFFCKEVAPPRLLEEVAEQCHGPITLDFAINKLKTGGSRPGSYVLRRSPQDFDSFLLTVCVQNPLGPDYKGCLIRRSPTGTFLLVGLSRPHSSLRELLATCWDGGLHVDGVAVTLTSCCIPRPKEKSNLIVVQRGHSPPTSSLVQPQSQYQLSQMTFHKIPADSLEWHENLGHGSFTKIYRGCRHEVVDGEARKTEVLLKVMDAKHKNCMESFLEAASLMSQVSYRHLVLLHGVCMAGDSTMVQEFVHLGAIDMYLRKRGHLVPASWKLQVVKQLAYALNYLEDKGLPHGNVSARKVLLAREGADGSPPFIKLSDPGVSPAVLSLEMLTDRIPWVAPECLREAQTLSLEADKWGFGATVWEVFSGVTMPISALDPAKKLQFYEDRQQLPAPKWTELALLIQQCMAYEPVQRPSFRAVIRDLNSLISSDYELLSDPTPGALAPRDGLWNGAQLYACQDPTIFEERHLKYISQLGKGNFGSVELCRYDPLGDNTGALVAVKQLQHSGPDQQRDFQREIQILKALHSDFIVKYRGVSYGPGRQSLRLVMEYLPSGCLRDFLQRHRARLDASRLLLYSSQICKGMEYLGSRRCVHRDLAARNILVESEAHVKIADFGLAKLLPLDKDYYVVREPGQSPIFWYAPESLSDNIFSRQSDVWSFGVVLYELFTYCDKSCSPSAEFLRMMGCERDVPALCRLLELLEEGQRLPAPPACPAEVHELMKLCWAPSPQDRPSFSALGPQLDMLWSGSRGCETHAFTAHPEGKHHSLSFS
Sequence of JAK2 (O60674 whole entry): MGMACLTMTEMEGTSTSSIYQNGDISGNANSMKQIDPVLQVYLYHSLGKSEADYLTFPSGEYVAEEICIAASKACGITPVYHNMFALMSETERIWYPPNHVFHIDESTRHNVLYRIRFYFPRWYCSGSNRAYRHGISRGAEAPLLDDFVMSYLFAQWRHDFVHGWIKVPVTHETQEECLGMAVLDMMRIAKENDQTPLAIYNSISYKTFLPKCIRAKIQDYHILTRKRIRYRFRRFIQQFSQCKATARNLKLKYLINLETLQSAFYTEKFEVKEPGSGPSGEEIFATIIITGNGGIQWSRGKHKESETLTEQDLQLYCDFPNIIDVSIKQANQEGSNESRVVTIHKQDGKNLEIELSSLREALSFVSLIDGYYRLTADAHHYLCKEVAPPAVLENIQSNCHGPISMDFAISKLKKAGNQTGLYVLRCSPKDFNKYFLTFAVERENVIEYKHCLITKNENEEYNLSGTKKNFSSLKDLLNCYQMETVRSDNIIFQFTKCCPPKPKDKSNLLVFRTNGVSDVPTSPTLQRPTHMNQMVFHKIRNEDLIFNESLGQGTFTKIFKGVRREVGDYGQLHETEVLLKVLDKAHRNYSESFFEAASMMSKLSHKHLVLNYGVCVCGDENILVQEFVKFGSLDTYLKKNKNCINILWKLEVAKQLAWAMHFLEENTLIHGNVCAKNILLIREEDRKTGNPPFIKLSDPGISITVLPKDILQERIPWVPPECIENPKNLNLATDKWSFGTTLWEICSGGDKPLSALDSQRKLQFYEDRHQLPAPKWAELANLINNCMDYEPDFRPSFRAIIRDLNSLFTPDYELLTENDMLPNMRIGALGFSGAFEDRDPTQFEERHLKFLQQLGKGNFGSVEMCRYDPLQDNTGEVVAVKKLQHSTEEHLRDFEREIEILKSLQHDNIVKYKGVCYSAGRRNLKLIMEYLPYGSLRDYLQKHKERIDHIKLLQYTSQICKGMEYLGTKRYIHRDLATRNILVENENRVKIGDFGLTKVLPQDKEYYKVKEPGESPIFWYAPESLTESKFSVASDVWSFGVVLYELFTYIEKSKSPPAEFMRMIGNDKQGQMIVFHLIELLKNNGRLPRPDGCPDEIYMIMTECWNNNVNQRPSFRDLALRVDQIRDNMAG

Q: For `CCc1cc(O)ccc1-c1ccc2c(-c3nc(C4=CCNCC4)c[nH]3)n[nH]c2c1F` [Compound 2, 3-ethyl-4-(7-fluoro-3-(4-(1,2,3,6-tetrahydropyridin-4-yl)-1H-imidazol-2-yl)-1H-indazol-6-yl)phenol], which Ki [1] is on record?
A: 0.1 to 1 nM

Q: And the Ki [2]?
A: 0.1 to 1 nM

Q: And the Ki [3]?
A: 1 to 10 nM

Q: What about the IC50 [4] of the same compound?
A: 3.16 to 10 nM

Q: And the “Lung Tissue AUC(0-24)” value [5]?
A: B (B denotes a value between 50 and 100)

Q: And the “Lung Tissue:Plasma AUC ratio” value [5]?
A: C (C denotes a ratio between 100 and 200)

Q: What about the AUC(0-t) [5] of the same compound?
A: 500 to 1000 ng·h/mL

Q: Which results are given for `CCc1cc(O)ccc1-c1ccc2c(-c3nc(C4=CCNCC4)c[nH]3)n[nH]c2c1` [Compound 3, 3-ethyl-4-(3-(4-(1,2,3,6-tetrahydropyridin-4-yl)-1H-imidazol-2-yl)-1H-indazol-6-yl)phenol]?
A: Ki [1]: 0.1 to 1 nM; Ki [2]: 0.1 to 1 nM; Ki [3]: 1 to 10 nM; IC50 [4]: 3.16 to 10 nM; Lung Tissue AUC(0-24) [5]: A (For the Lung Tissue AUC(0-24), A denotes a value between 100 and 200); Lung Tissue:Plasma AUC ratio [5]: C (C denotes a ratio between 100 and 200); AUC(0-t) [5]: 500 to 1000 ng·h/mL

Q: With `CCc1cc(O)ccc1-c1ccc2c(-c3nc(C4=CCNC4)c[nH]3)n[nH]c2c1F` [Compound 1, 4-(3-(4-(2,5-dihydro-1H-pyrrol-3-yl)-1H-imidazol-2-yl)-7-fluoro-1H-indazol-6-yl)-3-ethylphenol] as the compound, how does the Ki [1] read?
A: 0.1 to 1 nM

Q: And the Ki [2]?
A: 0.1 to 1 nM

Q: And the Ki [3]?
A: 0.1 to 1 nM

Q: What about the IC50 [4] of the same compound?
A: 3.16 to 10 nM

Q: And the “Lung Tissue AUC(0-24)” value [5]?
A: B (B denotes a value between 50 and 100)

Q: And the “Lung Tissue:Plasma AUC ratio” value [5]?
A: C (C denotes a ratio between 100 and 200)

Q: And the AUC(0-t) [5]?
A: 500 to 1000 ng·h/mL
